Positions count from the first letter of the chain named.
Experiments:
PPARα = target: T1, PPARα (Mus musculus, UniProt P23204); assay: Thermal shift assay, full length PPARα with ligands; format: binding; conditions: full length protein with ligand; protein only x=45.96321
T1 construct: GFP; made in house; host or cells: not clearly stated (lentivirus packaged in HEK293FT cells)
T1 sequence (P23204 1-468): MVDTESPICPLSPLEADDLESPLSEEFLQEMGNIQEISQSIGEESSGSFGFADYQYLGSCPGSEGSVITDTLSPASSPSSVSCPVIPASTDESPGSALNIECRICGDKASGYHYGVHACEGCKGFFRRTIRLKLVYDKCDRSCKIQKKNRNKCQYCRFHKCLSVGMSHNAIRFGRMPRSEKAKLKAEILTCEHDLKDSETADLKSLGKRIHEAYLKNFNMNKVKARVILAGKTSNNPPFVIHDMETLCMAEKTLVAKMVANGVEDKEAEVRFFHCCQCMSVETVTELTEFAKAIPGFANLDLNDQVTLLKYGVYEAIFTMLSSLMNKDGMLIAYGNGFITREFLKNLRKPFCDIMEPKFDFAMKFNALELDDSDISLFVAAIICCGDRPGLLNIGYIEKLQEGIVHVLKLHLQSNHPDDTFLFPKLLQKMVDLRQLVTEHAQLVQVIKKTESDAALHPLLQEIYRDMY
Protocol: (§1) Lentivirus-mediated de novo expression studies were performed, where wild type full-length (GFP-FLPpara) was overexpressed and three different LBD-mutated PPARα (GFP-Y314D, GFP-Y464D and GFP-Y314D/Y464D Ppara) recombinant proteins (FIG. 9D) were expressed in neurons followed by binding analyses with three endogenous ligands. Briefly, site directed mutagenesis was performed in the mouse PPARα with Y314 and Y464 residues replaced separately or together with aspartate (D). After that, the entire mouse GFP-Ppara gene (GFP-FLPpara) and three different mutated genes were cloned in the pLenti6/V5-TOPO lentiviral expression vector (FIG. 3D), packaged in lentivirus particle with HEK293FT cells, purified full length and mutated PPARα proteins in a GFP-affinity column, and finally thermal shift assays were performed in order to analyze their conformational stability. […] After 48 h of transduction, the cells were homogenized, passed through GFP-affinity column, eluted, fractionated with chloroform-methanol, and finally analyzed by GC-MS for the detection of ligands. […] On the other hand, mutation of the Y464 completely knocked down the ligand binding affinity as we observed profound loss of ligand binding in both lenti-GFP-Y464D-Ppara (FIG. 3K, FIG. 9K) and lenti-GFP-Y314D/Y464D-Ppara (FIG. 3L, FIG. 9L)-transduced Ppara-null neurons. Throughout these analyses, we used 2,4-bis (α, α-dimethyl benzyl) phenol as an internal standard (Supplementary FIG. 5A-F). We normalized peak area of different ligands with that of internal standard and then quantified the binding affinity of these ligands with different construct of PPARα by peak integration statistics (Table 1).
(§2) Thermal shift assays were performed in Applied Biosystems 7500 standard real-time thermal cycler machine with commercially available thermal shift dye kit (Life technologies; Cat #4461146). For each reaction, purified protein (0.5 μg to 1 μg) was added to 18 μL of thermal shift buffer provided with the kit, and 1-2 μL of dye. […]

[1] = test system: PPRE-driven luciferase activity; assay: PPRE-luciferase assay in Pparb-null astrocytes with PPARγ antagonist GW9662; format: cell-based, mouse; conditions: for PPRE luciferase activity: Pparb-null astrocytes; for effect of GW9662 on ligand-mediated increase in PPRE-luciferase activity: Pparb-null astrocytes pre-treated with GW9662
Protocol: FIG. 16A) Pparb-null primary astrocytes plated at 60-70% confluence in 12-well plates were transfected with 0.25 μg of tkPPREx3-Luc (a PPRE-dependent luciferase reporter construct). Twenty-four hours after transfection, cells were treated with different concentrations of GW9662 for 30 min followed by stimulation with rosiglitazone. After 4 h, luciferase activities were assayed. […] After transfection, cells were also treated with GW9662 followed by stimulation with OCT (FIG. 16B), HEX (FIG. 16C) and HMB (FIG. 16D).
These astrocytes were pre-treated with PPARγ-antagonist GW9662 to nullify the involvement of PPARγ in reporter assay.

Y464D-PPARα = target: T2, Y464D-PPARα (Mus musculus, UniProt P23204, Y464D); assay: Thermal shift assay, Y464D-PPARα with ligands; format: binding
T2 construct: the entire mouse GFP-Ppara gene (GFP-FLPpara) and three different mutated genes were cloned; GFP; made in house; host or cells: not clearly stated (lentivirus packaged in HEK293FT cells)
T2 sequence (P23204 1-468 Y464D): T1 sequence (P23204 1-468) with Y464D
Protocol: as §1, §2

x at y=50 of thermal shift curve (melting temperature) (PPARα)	PPRE luciferase activity [1]	effect of GW9662 on ligand-mediated increase in PPRE-luciferase activity [1]	effect on Tm of Y464D-PPARα (Y464D-PPARα)	SMILES
59.2835	markedly increased	remained unable to inhibit	did not alter the Tm	CCCCCCCCCCCCCCCC(N)=O [HEX, hexadecanamide]
58.49	markedly increased	remained unable to inhibit	did not alter the Tm	CCOC(=O)C(C)(C)C(C)O (stereo not drawn) [HMB]
59.6128	markedly increased	remained unable to inhibit	did not alter the Tm	CCCCCCCCC=CCCCCCCCC(N)=O [OCT, 9-octadecenamide]
